Data: patent US20260014147A1, “STAT6 DEGRADERS” (Gilead Sciences, Inc., priority 2024, published 2026)

What was measured:
[1] = target: T1, STAT6 (endogenous, HiBiT-tagged) in HeLa LgBiT clone 4.14 cells (Homo sapiens, UniProt P42226); test: STAT6 Degrader Assay (HiBiT based, HeLa LgBiT clone 4.14 cells, luminescence, DC50); type: cell-based; conditions: geometric mean; for Emax: Emax provided for test compounds with <80% Emax (and 2c15), read-out: STAT6 degradation Emax; for DC50: DC50 provided for test compounds with >80% Emax, read-out: STAT6 degradation DC50
T1 construct: These cells express endogenous STAT6; host or cells: HeLa LgBiT clone 4.14
T1 sequence (P42226 1-847): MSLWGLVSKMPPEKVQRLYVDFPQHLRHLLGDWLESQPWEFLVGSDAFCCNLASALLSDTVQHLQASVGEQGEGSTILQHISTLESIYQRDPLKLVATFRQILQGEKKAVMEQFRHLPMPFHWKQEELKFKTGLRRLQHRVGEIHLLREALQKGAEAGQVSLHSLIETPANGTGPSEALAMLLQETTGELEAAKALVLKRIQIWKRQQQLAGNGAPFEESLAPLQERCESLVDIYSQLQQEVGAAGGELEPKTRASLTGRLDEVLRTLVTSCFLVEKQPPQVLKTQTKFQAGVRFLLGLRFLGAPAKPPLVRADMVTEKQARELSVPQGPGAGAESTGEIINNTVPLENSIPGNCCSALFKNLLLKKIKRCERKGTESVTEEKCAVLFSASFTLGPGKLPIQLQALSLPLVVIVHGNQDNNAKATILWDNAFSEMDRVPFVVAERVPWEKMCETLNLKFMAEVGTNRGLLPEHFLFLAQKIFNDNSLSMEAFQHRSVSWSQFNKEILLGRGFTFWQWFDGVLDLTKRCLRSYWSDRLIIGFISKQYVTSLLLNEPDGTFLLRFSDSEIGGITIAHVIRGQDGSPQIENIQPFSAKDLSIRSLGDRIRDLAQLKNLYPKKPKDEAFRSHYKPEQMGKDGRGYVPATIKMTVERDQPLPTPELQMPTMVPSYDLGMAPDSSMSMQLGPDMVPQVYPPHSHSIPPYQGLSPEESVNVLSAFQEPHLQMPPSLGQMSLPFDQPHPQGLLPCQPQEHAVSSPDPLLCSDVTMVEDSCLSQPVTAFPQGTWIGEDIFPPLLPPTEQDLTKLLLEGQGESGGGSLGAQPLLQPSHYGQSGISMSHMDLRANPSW
Summary of the method: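 HeLa LgBiT clone 4.14 cells carry CRISPR-inserted HiBiT on endogenous STAT6; 5000 cells/well were exposed to compound for 4-24 h at 37 °C, 5% CO2. Nano-Glo substrate added for 0.5 h; luminescence reflects remaining STAT6, with terfenadine ([…]) wells defining 100% degradation.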

[2] = system: Eotaxin-3 (CCL26) release in human whole blood stimulated with IL-4; test: Human Whole Blood Eotaxin-3 Assay (IL-4 stimulated, inhibition of eotaxin-3 release); type: cell-based; conditions: Homo sapiens, EC50 provided for test compounds with >80% Emax, geometric mean across assay runs and batches
Summary of the method: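 Lithium-heparin human whole blood preincubated 2 h at 37 °C with compounds (4-fold serial dilution, triplicate, 0.5% DMSO final), then stimulated with 400 pM IL-4 for 48 h. Eotaxin-3 (CCL26) in supernatant quantified by MSD immunoassay.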

| Structure (SMILES) | Emax [1] | EC50 [2] | DC50 [1] |
| --- | --- | --- | --- |
| C[C@@H](c1cc2c(-c3ccc(N)nn3)ccnc2n1C)N1CCC(c2ccc(C(=O)N3CCC(CN4CCN(c5ccc(NC6CCC(=O)NC6=O)cc5F)CC4)CC3)cc2)CC1 (stereo partly drawn) [Example 2c27, 3-((4-(4-((1-(4-(1-((S)-1-(4-(6-aminopyridazin-3-yl)-1-methyl-1H-pyrrolo[2,3-b]pyridin-2-yl)ethyl)piperidin-4-yl)benzoyl)piperidin-4-yl)methyl)piperazin-1-yl)-3-fluorophenyl)amino)piperidine-2,6-dione] | 70 to 80% | 169 nM | – |
| C[C@@H](c1cc2c(-c3ccc4[nH]c(=O)n(C)c4c3)ccnc2n1C)N1CCC(c2ccc(C(=O)N3CCC(CN4CCN(c5ccc(NC6CCC(=O)NC6=O)cc5F)CC4)CC3)cc2)CC1 (stereo partly drawn) [Example 2c28, 3-((3-fluoro-4-(4-((1-(4-(1-((S)-1-(1-methyl-4-(3-methyl-2-oxo-2,3-dihydro-1H-benzo[d]imidazol-5-yl)-1H-pyrrolo[2,3-b]pyridin-2-yl)ethyl)piperidin-4-yl)benzoyl)piperidin-4-yl)methyl)piperazin-1-yl)phenyl)amino)piperidine-2,6-dione] | 70 to 80% | 95.3 nM | – |
| CNc1ccc(-c2ccnc3c2cc([C@H](C)N2CC=C(c4c(C)cc(C(=O)N5CCC(CN6CCN(c7ncc(NC8CCC(=O)NC8=O)cc7F)C[C@@H]6C)CC5)cc4F)CC2)n3C)cn1 (stereo partly drawn) [Example 2c45, 3-((5-fluoro-6-((S)-4-((1-(3-fluoro-5-methyl-4-(1-((S)-1-(1-methyl-4-(6-(methyl-amino)pyridin-3-yl)-1H-pyrrolo[2,3-b]pyridin-2-yl)ethyl)-1,2,3,6-tetrahydropyridin-4-yl)benzoyl)-piperidin-4-yl)methyl)-3-methylpiperazin-1-yl)pyridin-3-yl)amino)piperidine-2,6-dione] | – | 104 nM | 21.3 nM |
| C[C@@H](c1cc2c(-c3ccc(N)nc3)ccnc2n1C)N1CCC(c2ccc(C(=O)N3CCC(CN4CCN(c5ncc(NC6CCC(=O)NC6=O)cc5F)CC4)CC3)cc2)CC1 (stereo partly drawn) [Example 2n10, 3-((6-(4-((1-(4-(1-((S)-1-(4-(6-aminopyridin-3-yl)-1-methyl-1H-pyrrolo[2,3-b]pyridin-2-yl)ethyl)-piperidin-4-yl)benzoyl)piperidin-4-yl)methyl)piperazin-1-yl)-5-fluoropyridin-3-yl)amino)-piperidine-2,6-dione] | 70 to 80% | 131 nM | – |
| C[C@@H](c1cc2c(-c3ccc(N)nc3)ccnc2n1C)N1CCC(c2ccc(C(=O)N3CCn4nc(CN5CCC(c6ccc(NC7CCC(=O)NC7=O)cc6F)CC5)cc4C3)cc2)CC1 (stereo partly drawn) [Example 2q5, 3-((4-(1-((5-(4-(1-((S)-1-(4-(6-aminopyridin-3-yl)-1-methyl-1H-pyrrolo[2,3-b]pyridin-2-yl)ethyl)-piperidin-4-yl)benzoyl)-4,5,6,7-tetrahydropyrazolo[1,5-a]pyrazin-2-yl)methyl)piperidin-4-yl)-3-fluorophenyl)-amino)piperidine-2,6-dione] | – | 2.3 nM | 1 nM |
| C[C@@H](c1cc2c(-c3ccc(N)nc3C#N)ccnc2n1C)N1CCC(c2ccc(C(=O)N3CCC(CN4CCN(c5ccc(NC6CCC(=O)NC6=O)cc5F)CC4)CC3)cc2)CC1 (stereo partly drawn) [Example 2c22, 6-amino-3-(2-((1S)-1-(4-(4-(4-((4-(4-((2,6-dioxopiperidin-3-yl)amino)-2-fluorophenyl)-piperazin-1-yl)methyl)piperidine-1-carbonyl)phenyl)piperidin-1-yl)ethyl)-1-methyl-1H-pyrrolo[2,3-b]pyridin-4-yl) picolinonitrile] | – | 153 nM | 28.2 nM |
| COCc1nc2cc(-c3ccnc4c3cc([C@H](C)N3CCC(c5ccc(C(=O)N6CCC(CN7CCN(c8ccc(N[C@@H]9CCC(=O)NC9=O)cc8F)CC7)CC6)cc5)CC3)n4C)ccc2[nH]1 (single isomer, unassigned) [Example 2c52] | – | 30.7 nM | 3.9 nM |
| COCc1nc2cc(-c3ccnc4c3cc([C@H](C)N3CCC(c5ccc(C(=O)N6CCC(CN7CCN(c8ccc(N[C@@H]9CCC(=O)NC9=O)cc8F)C[C@H]7C)CC6)cc5)CC3)n4C)ccc2[nH]1 (single isomer, unassigned) [Example 2f13] | – | 15.6 nM | 2.5 nM |
| COCc1nc2cc(-c3ccnc4c3cc([C@H](C)N3CCC(c5ccc(C(=O)N6CCC(CN7CCN(c8ccc(N[C@H]9CCC(=O)NC9=O)cc8F)CC7)CC6)cc5)CC3)n4C)ccc2[nH]1 (single isomer, unassigned) [Example 2c53] | – | 30.9 nM | 4.7 nM |
| COCc1nc2cc(-c3ccnc4c3cc([C@H](C)N3CCC(c5ccc(C(=O)N6CCC(CN7CCN(c8ccc(NC9CCC(=O)NC9=O)cc8F)C[C@H]7C)CC6)cc5)CC3)n4C)ccc2[nH]1 (stereo partly drawn) [Example 2f1, 3-((3-fluoro-4-((R)-4-((1-(4-(1-((S)-1-(4-(2-(methoxymethyl)-1H-benzo[d]imidazol-5-yl)-1-methyl-1H-pyrrolo[2,3-b]pyridin-2-yl)ethyl)piperidin-4-yl)benzoyl)piperidin-4-yl)methyl)-3-methylpiperazin-1-yl)phenyl)amino)piperidine-2,6-dione] | – | 25 nM | 3.4 nM |
| C[C@@H](c1cc2c(-c3ccc(N)nc3)ccnc2n1C)N1CCC(c2ccc(C(=O)N3CCC(CN4CCN(c5ccc(NC6CCC(=O)NC6=O)cc5F)CC4C(F)(F)F)CC3)cc2)CC1 (mixture of isomers) [Example 2f9, 3-((4-(4-((1-(4-(1-((S)-1-(4-(6-aminopyridin-3-yl)-1-methyl-1H-pyrrolo[2,3-b]pyridin-2-yl)-ethyl)piperidin-4-yl)benzoyl)piperidin-4-yl)methyl)-3-(trifluoromethyl)-piperazin-1-yl)-3-fluorophenyl)-amino)piperidine-2,6-dione] | – | 249 nM | 69.2 nM |
| CO[C@@H](C)c1nc2cc(-c3ccnc4c3cc([C@H](C)N3CCC(c5ccc(C(=O)N6CCC(CN7CCN(c8ccc(NC9CCC(=O)NC9=O)cc8F)CC7)CC6)cc5)CC3)n4C)ccc2[nH]1 (stereo partly drawn) [Example 2c18, 3-((3-fluoro-4-(4-((1-(4-(1-((S)-1-(4-(2-((S)-1-methoxyethyl)-1H-benzo[d]imidazol-5-yl)-1-methyl-1H-pyrrolo[2,3-b]pyridin-2-yl)ethyl)piperidin-4-yl)benzoyl)piperidin-4-yl)methyl)piperazin-1-yl)phenyl)amino)piperidine-2,6-dione] | – | 39 nM | 4.8 nM |
| COCc1nc2cc(-c3ccnc4c3cc([C@H](C)N3CCC(c5ccc(C(=O)N6CCC(CN7CCN(c8ncc(NC9CCC(=O)NC9=O)cc8F)CC7)CC6)cc5)CC3)n4C)ccc2[nH]1 (stereo partly drawn) [Example 2n12, 3-((5-fluoro-6-(4-((1-(4-(1-((S)-1-(4-(2-(methoxymethyl)-1H-benzo[d]imidazol-5-yl)-1-methyl-1H-pyrrolo[2,3-b]pyridin-2-yl)ethyl)piperidin-4-yl)benzoyl)piperidin-4-yl)methyl)piperazin-1-yl)pyridin-3-yl)amino)piperidine-2,6-dione] | 70 to 80% | 40.9 nM | – |
